Paper PMC6791321, “CD23 is a glycan-binding receptor in some mammalian species” (The Journal of Biological Chemistry, 2019)

Key:
Format in all cases: binding
cow CD23 CRD [1] = target: T1, cow CD23 CRD (Bos taurus, UniProt E1BIQ4); test: solid-phase competition with horseradish peroxidase reporter, immobilized biotin-tagged CRD; settings: pH 7.8, 2.5 mM CaCl2, 150 mM NaCl, 4 °C, competitive, KI approximates KD
T1 construct: gene FCER2; untagged for crystals; C-terminal biotinylation tag LNDIFEAQKIEWHE for solid-phase assays
T1 sequence (E1BIQ4 169-302): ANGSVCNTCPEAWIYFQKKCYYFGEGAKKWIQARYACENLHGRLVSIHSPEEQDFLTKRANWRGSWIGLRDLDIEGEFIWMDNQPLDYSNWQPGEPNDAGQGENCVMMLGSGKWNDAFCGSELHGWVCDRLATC
Excerpt: solid-phase competition with horseradish peroxidase reporter, immobilized biotin-tagged CRD on cow CD23 CRD | The three monosaccharides with highest affinity are mannose, fucose, and GlcNAc

mouse CD23 CRD = target: T2, mouse CD23 CRD (Mus musculus, UniProt P20693); test: as above; settings: pH 7.8, 2.5 mM CaCl2, 150 mM NaCl, 4 °C, competitive, KI approximates KD
T2 construct: gene Fcer2
T2 sequence (P20693 185-298 limits assumed): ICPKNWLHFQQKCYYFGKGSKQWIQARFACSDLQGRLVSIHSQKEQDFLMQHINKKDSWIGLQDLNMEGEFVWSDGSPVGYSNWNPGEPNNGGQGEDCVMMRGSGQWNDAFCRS

cow CD23 CRD [2] = target: T1, cow CD23 CRD; test: as above; settings: pH 7.8, 2.5 mM CaCl2, 150 mM NaCl, 4 °C; competitive
cow CD23 CRD [3] = target: T1, cow CD23 CRD; test: solid-phase competition with horseradish peroxidase reporter, immobilized biotin-tagged CRD; also crystal structure at […] Å (untagged CRD)
[4] = may have been tested as methyl glycoside

Row | Ki (cow CD23 CRD [1]) | Ki (mouse CD23 CRD) | also measured | Compound
1 | 1100 µM | 5200 µM |  | CC(=O)N[C@H]1C(O)O[C@H](CO)[C@@H](O)[C@@H]1O (some centres unmarked) [GlcNAc]
2 |  |  | ratio of affinities relative to α-methyl mannoside (cow CD23 CRD [2]): 240 ± 50 fold | CC(=O)N[C@H]1[C@H](O[C@H]2[C@H](O)[C@@H](NC(C)=O)C(O)O[C@@H]2CO)O[C@H](CO)[C@@H](O[C@@H]2O[C@H](CO[C@H]3O[C@H](CO[C@H]4O[C@H](CO)[C@@H](O)[C@H](O)[C@@H]4O[C@H]4O[C@H](CO)[C@@H](O)[C@H](O)[C@@H]4O)[C@@H](O)[C@H](O[C@H]4O[C@H](CO)[C@@H](O)[C@H](O)[C@@H]4O[C@H]4O[C@H](CO)[C@@H](O)[C@H](O)[C@@H]4O)[C@@H]3O)[C@@H](O)[C@H](O[C@H]3O[C@H](CO)[C@@H](O)[C@H](O)[C@@H]3O[C@H]3O[C@H](CO)[C@@H](O)[C@H](O)[C@@H]3O[C@H]3O[C@H](CO)[C@@H](O)[C@H](O)[C@@H]3O)[C@@H]2O)[C@@H]1O (some centres unmarked) [Man9GlcNAc2]
3 |  |  | Ki (cow CD23 CRD [1]; [4]): 1800 µM; Ki (mouse CD23 CRD; [4]): 8400 µM | C[C@@H]1OC(O)[C@@H](O)[C@H](O)[C@@H]1O (some centres unmarked) [fucose]
4 | 1600 µM | 5700 µM |  | OC[C@H]1OC(O)[C@@H](O)[C@@H](O)[C@@H]1O (some centres unmarked) [mannose]
5 |  |  | Ki (cow CD23 CRD [3]): 1600 µM | CO[C@H]1O[C@H](CO)[C@@H](O)[C@H](O)[C@@H]1O [α-methyl mannoside]
